Source: patent US11229664B2, “Treatment of myelosuppression” (priority 2012, dated 2022)
Where “and” joins values, the source holds several entries; their conditions need not be identical. Equal values may be shown once. Read-outs that look alike come from different tables or passages of the source.

Columns and labels:
[1] = tested on: platelets; assay: Clinical trial, metastatic pancreatic cancer: platelet count / thrombocytopenia grade; type: in vivo, human; parameters: Platelet count at start of cycle, Cycle 4 / Platelet count: unit: ×10^3/μl blood
From the text: Male and non-pregnant, non-lactating, female patients, aged 18 to 75, with histologically confirmed metastatic adenocarcinoma of the pancreas were enrolled in the trial. […] Treatment consisted of a series of 28-day cycles, wherein the last day of one cycle (e.g., day 28, cycle 1) was immediately followed by the first day of the next cycle (e.g., day 1, cycle 2). […] Nab-paclitaxel and gemcitabine therapy was given as described in the prescribing information for Abraxane® and Gemzar®. See also, Von Hoff et al., 2011, J. […] As a substantially non-anticoagulant heparinoid, ODSH can be administered at a dose that is greater than the fully anticoagulant dose of unfractionated heparin, without concern for anticoagulant effect, as shown in the Results below. An initial run-in period was conducted in which ten patients were treated with the gemcitabine, nab-paclitaxel, and ODSH regimen described above. After all ten patients had completed at least one 28-day cycle, the data were reviewed and an open-label randomized study initiated, with two arms (ODSH arm and Control arm). In the ODSH arm, the dosing regimen was the same as in the run-in period (gemcitabine, nab-paclitaxel, and ODSH). In the Control arm, patients were given the same gemcitabine and nab-paclitaxel regimen as in the run-in period, but without ODSH. […] Platelet counts, total white blood cell counts, and absolute neutrophil counts were performed. Grading of thrombocytopenia and/or neutropenia was performed according to the following standards: [table]

[2] = tested on: metastatic adenocarcinoma of the pancreas; assay: Clinical trial: tumor response and disease status (RECIST 1.1), ECOG performance status; type: in vivo, human
Procedure: Treatment consisted of a series of 28-day cycles, wherein the last day of one cycle (e.g., day 28, cycle 1) was immediately followed by the first day of the next cycle (e.g., day 1, cycle 2). In each 28-day treatment cycle, patients were dosed at days 1, 8, and 15 (three weeks of medication followed by one week of rest) as follows. First, nab-paclitaxel at 125 mg/m^2 was administered as an intravenous infusion over 30 minutes. […] Nab-paclitaxel and gemcitabine therapy was given as described in the prescribing information for Abraxane® and Gemzar®. See also, Von Hoff et al., 2011, J. Clinical Oncology 29:1-7).
As a substantially non-anticoagulant heparinoid, ODSH can be administered at a dose that is greater than the fully anticoagulant dose of unfractionated heparin, without concern for anticoagulant effect, as shown in the Results below.
Blood samples were also tested on day 1 of each treatment cycle for the serum level of CA19-9 (carbohydrate antigen 19-9) a marker used to assess the efficacy of the chemotherapy agents in treating pancreatic cancer. See. e.g., Maeda, 2011, Int. J. Clin. Oncol. 16(5):539-45. Reduction in the serum level of CA19-9 is indicative of chemotherapeutic efficacy against the pancreatic cancer. Tumor response and disease status was measured according to Response Evaluation Criteria in Solid Tumors (RECIST) Guidelines Version 1.1. Eur. J. Cancer, 2009, 45:228-247. A reduction of at least 30% in the sum of the diameters of target lesions (measurable lesions present at screening, up to 2 lesions per involved organ) was scored as a partial response. Patients were scored as having stable disease where the smallest sum of target lesion diameters neither decreased nor increased sufficiently to qualify as a partial response or progressive disease.

[3] = type: in vivo, human; details: ODSH adjunct to gemcitabine/nab-paclitaxel
Procedure: Patients were also assessed for other side effects of chemotherapy, including fatigue, sensory neuropathy, nausea, and vomiting, each of which was graded according to severity. Grades were: 0 (normal), 1 (mild), 2 (moderate), 3 (severe) and 4 (life-threatening).

[4] = for Deaths: N = 10 per group
Procedure: All experiments were conducted on female athymic nude mice (Hsd:Athymic Nude-Foxn1nu) supplied by Harlan (Indianapolis, Ind.). Mice were received at four weeks of age, 12-15 grams in weight, and were acclimated for seven days prior to handling. The mice were housed in microisolator cages (Lab Products, Seaford, Del.) and maintained under specific pathogen-free conditions. All procedures were carried out under appropriate institutional guidelines for animal care.
Seven days following inoculation, tumors were measured using calipers and tumor weight was calculated using the animal study management software. […] Body weights were recorded when the mice were randomized and were taken twice weekly thereafter in conjunction with tumor measurements, on each of Days 1, 4, 8, 11, 15, 18, 22, 26, 30, 33, and 36.
The study was terminated when the vehicle control reached an endpoint of 1500 mg, on Day 36.

[5] = ten patients, ODSH adjunct to gemcitabine/nab-paclitaxel
[6] = Table 13, first column group, headed Day 22
[7] = Table 13, second column group, headed Day 26
[8] = ten mice per group, BxPC-3 xenograft study

“substantially 2-O, 3-O desulfated heparin [ODSH]” gave a Platelet count ([1]; open-label randomized trial, per arm, Cycle 5 Day 15) of 121, a Platelet count ([1]; open-label randomized trial, per arm, Cycle 6 Day 1) of 371 and a Platelet count ([1]; open-label randomized trial, per arm, Cycle 6 Day 15) of 132. The “Platelet Count, Screen” value ([1]; prior to entry into the clinical trial protocol, individual patients) was 321 ×10^3/μl blood and 187 ×10^3/μl blood and 269 ×10^3/μl blood and 267 ×10^3/μl blood and 166 ×10^3/μl blood and 271 ×10^3/μl blood and 204 ×10^3/μl blood and 505 ×10^3/μl blood, the Platelet count ([1]; randomized stage, individual patients, Cycle 1 Day 15) was 231 and 216 and 121 and 103 and 199 and 172 and 162 and 232 and the Platelet count ([1]; randomized stage, individual patients, Cycle 2 Day 15) was 110 and 156 and 95 and 74 and 92 and 165. The Platelet count ([1]; randomized stage, individual patients, Cycle 3 Day 15) was 124 and 74 and 76 and 96, the Platelet count ([1]; randomized stage, individual patients, Cycle 4 Day 15) was 31 and 138 and the “Platelet counts, ODSH arm vs Control arm” value ([1]; randomized stage, gemcitabine + nab-paclitaxel with or without ODSH) was “statistically significant difference”. For the same substance, the “Median and mean platelet counts at day 15 of the first cycle, ODSH arm vs patients not receiving ODSH” value ([1]; randomized trial, 5 patients in each arm, p=0.013 unpaired t-test) was “significantly higher”, the “Platelet recovery by day 1 of a subsequent cycle, ODSH arm vs control arm” value ([1]; randomized trial, p=0.0004 after 6 cycles, unpaired t-test) was “enhanced” and the “ECOG Performance status” value ([2]; 7 evaluable patients, after 8 weeks in the trial (day 1 of cycle 3)) was “stable or improved”. For the same substance, the “Patients with clinical or radiographic evidence of progressive disease” value ([2]; after three or four full cycles of treatment) was “no patient”, the “Patients with partial response (RECIST)” value [2, 5] was 5 patients and the “Patients with stable disease (RECIST)” value [2, 5] was 5 patients. The “Patients experiencing no more than Grade 1 side effects (fatigue, sensory neuropathy, nausea, vomiting)” value [3] was “more than 50%”, the “Day by which the mice recovered their weight” value ([4]; BxPC-3 xenograft study) was ≤ 22 days and the “Day on which maximum weight loss was reached” value ([4]; BxPC-3 xenograft study) was 11 days. The “Tolerability / toxicity of the treatment regimen (in words)” value ([4]; BxPC-3 xenograft study, doses of Table 1) was “well-tolerated”, the “Average Weight” value ([4]; Day 1) was 21.54 g and the “% Weight Loss or Gain” value ([4]; Day 4) was −1.67%. For the same substance, the “Average Weight” value ([4]; Day 4) was 21.18 g, the “% Weight Loss or Gain” value ([4]; Day 8) was −1.67% and the “Average Weight” value ([4]; Day 8) was 21.18 g. For the same substance, the “% Weight Loss or Gain” value ([4]; Day 11) was −2.74%, the “Average Weight” value ([4]; Day 11) was 20.95 g and the “% Weight Loss or Gain” value ([4]; Day 15) was −2.14%. The “Average Weight” value ([4]; Day 15) was 21.08 g, the “% Weight Loss or Gain” value ([4]; Day 18) was −2.32% and the “Average Weight” value ([4]; Day 18) was 21.04 g. For the same substance, the “% Weight Loss or Gain” value ([4]; Day 22 (Table 12)) was 0.09%, the “Average Weight” value ([4]; Day 22 (Table 12)) was 21.56 g and the “% Weight Loss or Gain” value ([4]; Day 26 (Table 12)) was 2.79%. For the same substance, the “Average Weight” value ([4]; Day 26 (Table 12)) was 22.14 g, the “% Weight Loss or Gain” value [4, 6] was 4.60% and the “Average Weight” value [4, 6] was 22.53 g. For the same substance, the “% Weight Loss or Gain” value [4, 7] was 4.27%, the “Average Weight” value [4, 7] was 22.46 g and the Deaths ([4]; Total deaths on or before Day 26) was 0. For the same substance, the Deaths ([4]; Total deaths on or before Day 36) was 0, the Maximum weight loss ([4]; body weight of mice, BxPC-3 xenograft study) was 2.7% and the “Starting Weight” value ([4]; group mean body weight at start, dose, schedule and route per group as in table) was 21.54 g. The “% Weight Loss or Gain” value ([4]; mouse, in vivo) was 4.92%, the “Average Weight” value ([4]; mouse, in vivo) was 22.60 g and the “Mice with bruising on the tails or abdomen (site of injection)” value [4, 8] was “All ten”. For the same substance, the “Mice with swelling of the tail” value [4, 8] was “One of the ten”.
